Reference: ChEMBL document CHEMBL5380836, “Design and Structural Optimization of Methionine Adenosyltransferase 2A (MAT2A) Inhibitors with High In Vivo Potency and Oral Bioavailability” (J Med Chem, 2023)
The source made the active and inactive calls. The rule behind the calls is not given here.

Assays:
[1] = target: S-adenosylmethionine synthase isoform type-2 (Homo sapiens, UniProt P31153); test: Inhibition of recombinant MAT2A (unknown origin) expressed in baculovirus infected Sf9 insect cells using L-methionine as substrate preincubated for 15 mins followed by substrate addition measured after 60 mins by Kinase-Glo Luminescent assay
[2] = system: HCT-116; test: Antiproliferative activity against human HCT-116 cells expressing MTAP-/- assessed as inhibition of cell proliferation incubated for 4 days by fluorescence based assay; type: functional; conditions: HCT-116, 96 h
[3] = Tmax in ICR mouse at 10 mg/kg, po via gavage measured for 0.083 to 24 hrs by LC-MS analysis; type: ADME, organism-based; conditions: in vivo, time 0.083-24 hrs
[4] = Half life in ICR mouse at 10 mg/kg, po via gavage measured for 0.083 to 24 hrs by LC-MS analysis; type: ADME, organism-based; conditions: in vivo, time 0.083-24 hrs
[5] = Cmax in ICR mouse at 10 mg/kg, po via gavage measured for 0.083 to 24 hrs by LC-MS analysis; type: ADME, organism-based; parameters: time upper 24 hrs, dose 10 mg/kg, time lower 0.083 hrs, route po; conditions: in vivo
[6] = AUC in ICR mouse at 10 mg/kg, po via gavage measured for 0.083 to 24 hrs by LC-MS analysis; type: ADME, organism-based; parameters: dose 10 mg/kg, time upper 24 hrs, time lower 0.083 hrs, route po; conditions: in vivo
[7] = system: HCT-116; test: Antiproliferative activity against human HCT-116 cells assessed as inhibition of cell proliferation incubated for 4 days by fluorescence based assay; type: functional; conditions: HCT-116, 96 h
[8] = MRT in ICR mouse at 10 mg/kg, po via gavage measured for 0.083 to 24 hrs by LC-MS analysis; type: ADME, organism-based; conditions: in vivo, time 0.083-24 hrs
[9] = system: HCT-116; test: Antitumor activity against human HCT-116 cells expressing MTAP-/- xenografted in BALB/c mouse assessed as decrease in tumor volume at 50 mg/kg, po qd measured after 6 days; type: functional, organism-based; conditions: time 6.0 day
[10] = system: HCT-116; test: Antitumor activity against human HCT-116 cells expressing MTAP-/- xenografted in BALB/c mouse assessed as tumor regression at 50 mg/kg, po qd measured after 18 days relative to control; type: functional; conditions: time 18 day
[11] = Toxicity in BALB/c mouse xenografted with human HCT-116 cells expressing MTAP-/- assessed as drug tolerance at 50 mg/kg, po qd measured for 18 days; type: organism-based; conditions: in vivo, 432 h, time 18 day
[12] = Toxicity in BALB/c mouse xenografted with human HCT-116 cells expressing MTAP-/- assessed as body weight loss at 50 mg/kg, po qd measured for 18 days relative to control; type: organism-based; conditions: in vivo, 432 h, time 18 day
[13] = Apparent permeability of the compound across apical to basolateral side in MDCKII-MDR1 cells at 2 uM incubated for 2.5 hrs by LC-MS/MS analysis; type: ADME, cell-based, Canis lupus familiaris; conditions: dog, MDCK-MDR1
[14] = Intrinsic clearance in human liver microsomes at […] incubated for 5 to 60 mins in presence of NADPH by LC-MS analysis; type: ADME, Microsome; conditions: time 5-60 min
[15] = Efflux ratio of apparent permeability from basolateral to apical side over apical to basolateral side in MDCKII-MDR1 cells at 2 uM incubated for 2.5 hrs by LC-MS/MS analysis; type: ADME, cell-based, Canis lupus familiaris; conditions: dog, MDCK-MDR1
[16] = target: T1, Cytochrome P450 1A2 (Homo sapiens, UniProt P05177); test: Inhibition of CYP1A2 in human liver microsomes using phenacetin as substrate preincubated for 10 mins followed by substrate addition measured after 10 mins in presence of NADPH by LC-MS analysis; type: ADME, Microsome
T1 sequence (P05177 whole entry): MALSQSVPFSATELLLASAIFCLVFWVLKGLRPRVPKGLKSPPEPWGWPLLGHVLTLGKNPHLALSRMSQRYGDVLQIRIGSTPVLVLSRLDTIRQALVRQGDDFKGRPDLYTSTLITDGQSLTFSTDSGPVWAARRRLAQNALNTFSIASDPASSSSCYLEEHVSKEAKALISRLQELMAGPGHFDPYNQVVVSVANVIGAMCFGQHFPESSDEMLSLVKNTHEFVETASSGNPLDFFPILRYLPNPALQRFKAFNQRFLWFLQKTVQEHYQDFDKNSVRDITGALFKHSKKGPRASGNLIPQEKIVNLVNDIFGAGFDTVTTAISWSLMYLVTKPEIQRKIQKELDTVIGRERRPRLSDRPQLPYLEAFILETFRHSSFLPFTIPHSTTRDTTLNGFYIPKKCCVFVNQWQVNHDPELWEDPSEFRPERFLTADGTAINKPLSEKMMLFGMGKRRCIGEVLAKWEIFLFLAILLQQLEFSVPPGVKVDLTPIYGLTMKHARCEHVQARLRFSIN

[17] = target: Cytochrome P450 2C9 (Homo sapiens, UniProt P11712); test: Inhibition of CYP2C9 in human liver microsomes using diclofenac as substrate preincubated for 10 mins followed by substrate addition measured after 10 mins in presence of NADPH by LC-MS analysis; type: ADME, Microsome
[18] = target: Cytochrome P450 2C19 (Homo sapiens, UniProt P33261); test: Inhibition of CYP2C19 in human liver microsomes using S-mephenytoin as substrate preincubated for 10 mins followed by substrate addition measured after 10 mins in presence of NADPH by LC-MS analysis; type: ADME, Microsome
[19] = target: Cytochrome P450 2D6 (Homo sapiens, UniProt P10635); test: Inhibition of CYP2D6 in human liver microsomes using dextromethorphan as substrate preincubated for 10 mins followed by substrate addition measured after 10 mins in presence of NADPH by LC-MS analysis; type: ADME, Microsome
[20] = target: Cytochrome P450 3A4 (Homo sapiens, UniProt P08684); test: Inhibition of CYP3A4 in human liver microsomes using midazolam as substrate preincubated for 10 mins followed by substrate addition measured after 10 mins in presence of NADPH by LC-MS analysis; type: ADME, Microsome
[21] = target: UDP-glucuronosyltransferases (UGTs); test: Inhibition of UGT (unknown origin) preincubated for 10 mins followed by substrates addition measured after 10 mins by LC-MS analysis; type: ADME, protein assay, Homo sapiens
[22] = target: Voltage-gated inwardly rectifying potassium channel KCNH2 (Homo sapiens, UniProt Q12809); test: Inhibition of hERG potassium ion channel expressed in CHO cells at -80 mV holding potential treated for 2.5 mins by Q patch-clamp method; type: toxicity, cell-based
[23] = system: HCT-116; test: Antitumor activity against human HCT-116 cells expressing MTAP-/- xenografted in BALB/c mouse assessed as tumor growth inhibition at 50 mg/kg, po qd measured for 18 days relative to control; type: functional; conditions: HCT-116, 432 h, time 18 day, read-out: TGI
[24] = Clearance in ICR mouse at 1 mg/kg, iv measured for 0.083 to 24 hrs by LC-MS analysis; type: ADME, organism-based; conditions: in vivo, time 0.083-24 hrs
[25] = Half life in ICR mouse at 1 mg/kg, iv measured for 0.083 to 24 hrs by LC-MS analysis; type: ADME, organism-based; conditions: in vivo, time 0.083-24 hrs
[26] = AUC in ICR mouse at 1 mg/kg, iv measured for 0.083 to 24 hrs by LC-MS analysis; type: ADME, organism-based; parameters: time upper 24 hrs, time lower 0.083 hrs, dose 1 mg/kg, route iv; conditions: in vivo
[27] = Volume of distribution at steady state in ICR mouse at 1 mg/kg, iv measured for 0.083 to 24 hrs by LC-MS analysis; type: ADME, organism-based; conditions: in vivo, time 0.083-24 hrs, read-out: Vdss
[28] = Oral bioavailability in ICR mouse at 10 mg/kg administered via gavage measured for 0.083 to 24 hrs by LC-MS analysis; type: ADME, organism-based; conditions: in vivo, time 0.083-24 hrs

Chain of S-adenosylmethionine synthase isoform type-2 (P31153 whole entry, canonical isoform): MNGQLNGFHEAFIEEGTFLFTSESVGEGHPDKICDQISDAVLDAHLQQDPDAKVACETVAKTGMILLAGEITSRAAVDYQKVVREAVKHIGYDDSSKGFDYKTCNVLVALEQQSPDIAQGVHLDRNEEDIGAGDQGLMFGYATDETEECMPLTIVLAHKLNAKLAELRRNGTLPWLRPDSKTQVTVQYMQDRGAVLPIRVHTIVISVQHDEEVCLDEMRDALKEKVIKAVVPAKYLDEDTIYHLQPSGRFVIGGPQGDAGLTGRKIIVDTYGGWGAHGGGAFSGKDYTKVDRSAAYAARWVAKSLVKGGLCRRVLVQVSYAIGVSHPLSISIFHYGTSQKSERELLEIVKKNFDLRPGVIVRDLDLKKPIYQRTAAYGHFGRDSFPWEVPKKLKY
Chain of Cytochrome P450 3A4 (P08684 whole entry): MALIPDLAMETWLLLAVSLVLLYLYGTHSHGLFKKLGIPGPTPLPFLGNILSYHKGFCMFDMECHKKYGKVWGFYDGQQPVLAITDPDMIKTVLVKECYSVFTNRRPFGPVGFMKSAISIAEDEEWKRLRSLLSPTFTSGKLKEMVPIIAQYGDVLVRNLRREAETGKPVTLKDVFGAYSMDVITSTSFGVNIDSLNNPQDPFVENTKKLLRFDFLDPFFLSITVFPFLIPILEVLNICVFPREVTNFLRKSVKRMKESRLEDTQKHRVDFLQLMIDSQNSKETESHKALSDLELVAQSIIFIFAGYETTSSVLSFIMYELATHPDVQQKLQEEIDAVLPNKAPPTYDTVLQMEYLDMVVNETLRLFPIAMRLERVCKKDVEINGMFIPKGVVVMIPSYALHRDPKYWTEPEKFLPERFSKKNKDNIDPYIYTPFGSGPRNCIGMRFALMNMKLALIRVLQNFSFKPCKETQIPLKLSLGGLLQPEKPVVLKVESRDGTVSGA
Chain of Cytochrome P450 2C19 (P33261 whole entry): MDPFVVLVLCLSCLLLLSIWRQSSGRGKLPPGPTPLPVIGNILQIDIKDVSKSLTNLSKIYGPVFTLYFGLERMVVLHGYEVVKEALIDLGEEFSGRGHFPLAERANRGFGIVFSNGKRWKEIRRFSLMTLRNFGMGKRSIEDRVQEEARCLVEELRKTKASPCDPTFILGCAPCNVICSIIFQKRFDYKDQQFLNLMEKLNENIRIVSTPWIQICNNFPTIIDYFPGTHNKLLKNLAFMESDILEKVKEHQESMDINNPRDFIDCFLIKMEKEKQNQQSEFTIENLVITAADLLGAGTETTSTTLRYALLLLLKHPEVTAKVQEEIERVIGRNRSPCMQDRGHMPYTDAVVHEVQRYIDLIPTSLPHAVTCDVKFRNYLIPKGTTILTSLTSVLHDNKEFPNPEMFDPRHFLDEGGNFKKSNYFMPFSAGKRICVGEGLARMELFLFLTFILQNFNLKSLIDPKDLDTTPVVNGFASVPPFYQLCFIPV
Chain of Voltage-gated inwardly rectifying potassium channel KCNH2 (Q12809 whole entry): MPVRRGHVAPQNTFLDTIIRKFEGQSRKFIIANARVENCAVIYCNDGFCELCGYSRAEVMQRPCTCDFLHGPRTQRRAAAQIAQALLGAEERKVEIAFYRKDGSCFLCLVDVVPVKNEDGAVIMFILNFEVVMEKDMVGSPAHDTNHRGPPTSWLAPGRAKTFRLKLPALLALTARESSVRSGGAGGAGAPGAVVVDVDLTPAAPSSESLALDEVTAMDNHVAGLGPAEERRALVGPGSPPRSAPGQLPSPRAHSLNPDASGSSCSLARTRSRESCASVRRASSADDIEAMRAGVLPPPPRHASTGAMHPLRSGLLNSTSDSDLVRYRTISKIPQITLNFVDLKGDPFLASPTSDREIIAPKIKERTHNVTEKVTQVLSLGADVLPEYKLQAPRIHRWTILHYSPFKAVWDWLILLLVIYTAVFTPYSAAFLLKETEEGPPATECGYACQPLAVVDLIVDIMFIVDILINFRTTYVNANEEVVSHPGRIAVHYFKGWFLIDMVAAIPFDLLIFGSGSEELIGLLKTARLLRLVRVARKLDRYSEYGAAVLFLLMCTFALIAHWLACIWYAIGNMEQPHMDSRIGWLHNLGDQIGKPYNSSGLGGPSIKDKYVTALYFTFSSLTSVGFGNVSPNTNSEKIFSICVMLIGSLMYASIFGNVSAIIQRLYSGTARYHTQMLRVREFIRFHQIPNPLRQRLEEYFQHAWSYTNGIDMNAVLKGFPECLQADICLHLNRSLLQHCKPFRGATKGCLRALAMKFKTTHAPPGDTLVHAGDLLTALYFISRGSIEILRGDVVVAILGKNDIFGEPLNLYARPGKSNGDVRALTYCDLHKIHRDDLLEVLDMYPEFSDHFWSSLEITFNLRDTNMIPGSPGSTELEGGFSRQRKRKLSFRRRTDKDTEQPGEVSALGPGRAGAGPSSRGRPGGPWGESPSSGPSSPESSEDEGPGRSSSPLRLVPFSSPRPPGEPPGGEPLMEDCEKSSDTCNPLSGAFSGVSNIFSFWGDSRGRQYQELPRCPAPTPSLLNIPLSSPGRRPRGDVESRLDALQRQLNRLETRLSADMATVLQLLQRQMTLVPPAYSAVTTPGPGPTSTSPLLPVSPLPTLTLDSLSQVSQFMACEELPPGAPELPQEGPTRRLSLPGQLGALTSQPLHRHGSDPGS
Chain of Cytochrome P450 2D6 (P10635 whole entry): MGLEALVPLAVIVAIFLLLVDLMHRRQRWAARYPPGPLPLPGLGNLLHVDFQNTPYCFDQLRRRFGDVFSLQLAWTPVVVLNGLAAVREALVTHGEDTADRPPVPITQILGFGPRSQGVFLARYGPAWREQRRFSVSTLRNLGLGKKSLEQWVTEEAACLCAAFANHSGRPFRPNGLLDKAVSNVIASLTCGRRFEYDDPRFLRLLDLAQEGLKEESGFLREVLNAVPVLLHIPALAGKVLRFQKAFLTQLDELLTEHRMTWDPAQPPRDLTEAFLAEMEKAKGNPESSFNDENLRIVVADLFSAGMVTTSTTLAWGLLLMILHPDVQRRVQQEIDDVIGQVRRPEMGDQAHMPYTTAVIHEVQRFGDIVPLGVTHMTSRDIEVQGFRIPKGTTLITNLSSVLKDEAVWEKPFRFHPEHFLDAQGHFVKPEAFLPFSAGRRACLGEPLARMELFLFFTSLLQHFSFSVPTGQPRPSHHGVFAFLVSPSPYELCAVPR
Chain of Cytochrome P450 2C9 (P11712 whole entry): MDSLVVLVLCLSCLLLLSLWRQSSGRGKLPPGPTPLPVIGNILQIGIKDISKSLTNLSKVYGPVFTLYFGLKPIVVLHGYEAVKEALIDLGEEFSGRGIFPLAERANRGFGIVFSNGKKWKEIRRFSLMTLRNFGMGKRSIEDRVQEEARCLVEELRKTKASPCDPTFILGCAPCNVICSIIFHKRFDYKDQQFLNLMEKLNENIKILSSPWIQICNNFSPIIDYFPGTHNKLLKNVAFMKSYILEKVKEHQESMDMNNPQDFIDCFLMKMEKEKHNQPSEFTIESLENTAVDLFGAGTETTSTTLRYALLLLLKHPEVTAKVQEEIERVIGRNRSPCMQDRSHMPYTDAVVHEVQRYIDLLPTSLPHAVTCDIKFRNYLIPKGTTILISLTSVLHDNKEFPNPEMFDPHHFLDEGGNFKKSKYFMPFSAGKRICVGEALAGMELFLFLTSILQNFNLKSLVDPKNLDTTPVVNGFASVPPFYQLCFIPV

IC50 [1] [nM] | IC50 [2] [nM] | SMILES | also measured
27 | 84 | CC(C)Oc1ncc2cc(-c3ccc4nc5n(c4c3)CCN(C)C5)c(=O)n(-c3ccc(OC(F)F)cc3)c2n1 | 
32 | 145 | Cn1cc2cc(-n3cc4cnc(NCC(F)(F)F)nc4c(-c4ccc(Cl)cc4)c3=O)ccc2n1 | 
394 | 3110 | CCOc1ncc2cc(-c3ccc4c(c3)nc3n4CCN(C)C3)c(=O)n(-c3ccc(OC(F)F)cc3)c2n1 | 
> 1000 | > 10000 | CCOc1ncc2cc(-c3ccc4ncn5c4c3OCC5)c(=O)n(-c3ccc(OC(F)F)cc3)c2n1 | 
34 | 355 | CCOc1ccc2cc(-c3ccc4nn(C)cc4c3)c(=O)n(-c3ccc(OC(F)F)cc3)c2c1 | 
26 | 75 | CCOc1ccc2c(=O)n(-c3ccc4nc5n(c4c3)CCN(C)C5)c(=O)n(-c3ccc(OC(F)F)cc3)c2n1 | Tmax [3]: 0.67 h; half-life [4]: 2.98 h; Cmax [5]: 6730 ng/mL; AUC [6]: 41200 ng·h/mL; IC50 [7]: > 10000 nM; MRT [8]: 4.71 h; Activity [9]: Active; Activity [10]: -52%; Activity [11]: Non-Toxic; Activity [12]: 12%; Papp A→B at 2.5 h, 2 µM [13]: 2.9 ×10⁻⁶ cm/s; CLint [14]: 20.1 µL/min/mg; efflux ratio at 2.5 h, 2 µM [15]: 8; IC50 [16]: > 50000 nM; IC50 [17]: 39200 nM; IC50 [18]: 29000 nM; IC50 [19]: > 50000 nM; IC50 [20]: 36900 nM; IC50 [21]: > 50000 nM; IC50 [22]: > 50000 nM
23 | 67 | CCOc1ncc2cc(-c3ccc4nc5n(c4c3)CCN(CC3COC3)C5)c(=O)n(-c3ccc(OC(F)F)cc3)c2n1 | 
34 | 166 | CN1CCn2c(nc3ccc(-c4cc5cnc(NCC(F)(F)F)nc5n(-c5ccc(OC(F)F)cc5)c4=O)cc32)C1 | 
132 | 792 | CCOc1ncc2cc(-c3ccc4nc5n(c4c3)CCN(C)C5)c(=O)n(-c3ccc(OC)nc3)c2n1 | 
23 | 80 | CCOc1ncc2cc(-c3ccc4nn5c(c4c3)C(=O)N(C)CC5)c(=O)n(-c3ccc(OC(F)F)cc3)c2n1 | 
20 | 56 | CCOc1ncc2cc(-c3ccc4nc5n(c4c3)CCN(CC#N)C5)c(=O)n(-c3ccc(OC(F)F)cc3)c2n1 | 
14 | 34 | CN1CCn2c(nc3ccc(-c4cc5cnc(C6CC6)nc5n(-c5ccc(OC(F)F)cc5)c4=O)cc32)C1 | Tmax [3]: 0.5 h; half-life [4]: 4 h; Cmax [5]: 1740 ng/mL; AUC [6]: 11400 ng·h/mL
28 | 82 | CCOc1ccc2c(=O)n(-c3ccc4nn5c(c4c3)CN(C)CC5)c(=O)n(-c3ccc(OC(F)F)cc3)c2n1 | IC50 [7]: > 10000 nM
51 | 119 | CCOc1ncc2cc(-c3ccc4nc5n(c4c3)CCN(C)C5)c(=O)n(-c3ccc(Cl)cc3)c2n1 | 
64 | 484 | COc1ncc2cc(-c3ccc4nc5n(c4c3)CCN(C)C5)c(=O)n(-c3ccc(OC(F)F)cc3)c2n1 | 
37 | 159 | CN1CCn2c(nc3ccc(-c4cc5cnc(OCC(F)F)nc5n(-c5ccc(OC(F)F)cc5)c4=O)cc32)C1 | 
20 | 56 | CCOc1ncc2cc(-c3ccc4nn5c(c4c3)CN(C)CC5)c(=O)n(-c3ccc(OC(F)F)cc3)c2n1 | 
> 1000 | > 10000 | CCOc1ncc2c(n1)n(-c1ccc(OC(F)F)cc1)c(=O)n2Cc1ccc2nn(C)cc2c1 | 
17 | 50 | CCOc1ncc2cc(-c3ccc4nc5n(c4c3)CCN(CCOC)C5)c(=O)n(-c3ccc(OC(F)F)cc3)c2n1 | 
324 | 6120 | CN1CCn2c(nc3ccc(-c4cc5cnc(N6CCC6)nc5n(-c5ccc(OC(F)F)cc5)c4=O)cc32)C1 | 
> 1000 | > 10000 | CN1CCn2c(nc3ccc(-c4cc5cnc(N6CCCC6)nc5n(-c5ccc(OC(F)F)cc5)c4=O)cc32)C1 | 
52 | 118 | CCOc1ncc2cc(-c3ccc4nc5n(c4c3)CCN(C(C)=O)C5)c(=O)n(-c3ccc(OC(F)F)cc3)c2n1 | 
63 | 315 | CCOc1ccc2cc(-c3ccc4c(c3)C3(CC3)CO4)c(=O)n(-c3ccc(OC(F)F)cc3)c2c1 | 
 | 244 | COc1ccc(-c2c(Nc3ccccn3)[nH]c3c(C4=CCCCC4)c(-c4ccccc4)nn3c2=O)cc1 | inhibition in vivo at 50 mg/kg [23]: 34%
39 | 387 | CCOc1ncc2nc(-c3ccc4nn(C)cc4c3)c(=O)n(-c3ccc(OC(F)F)cc3)c2n1 | 
17 | 53 | CCOc1ncc2cc(-c3ccc4nc5n(c4c3)CCN(C(C)C)C5)c(=O)n(-c3ccc(OC(F)F)cc3)c2n1 | 
> 1000 | > 10000 | CCOc1ncc2cc(-c3ccc4c(c3)OCC3(CCN(C)CC3)O4)c(=O)n(-c3ccc(OC(F)F)cc3)c2n1 | 
72 | 447 | CCOc1ncc2cc(-c3cc4c5c(c3)ncn5CCO4)c(=O)n(-c3ccc(OC(F)F)cc3)c2n1 | 
18 | 52 | CCOc1ncc2cc(-c3ccc4nc5n(c4c3)CCN(C)C5)c(=O)n(-c3ccc(OC(F)F)cc3)c2n1 | clearance [24]: 17.1 mL/min/kg; half-life [25]: 2.4 h; AUC [26]: 990 ng·h/mL; Vd [27]: 2.18 L/kg; Tmax [3]: 0.83 h; half-life [4]: 3.3 h; Cmax [5]: 2300 ng/mL; AUC [6]: 11500 ng·h/mL; bioavailability [28]: 116%
14 | 42 | CCNc1ncc2cc(-c3ccc4nc5n(c4c3)CCN(C)C5)c(=O)n(-c3ccc(OC(F)F)cc3)c2n1 | Tmax [3]: 0.33 h; half-life [4]: 2.9 h; Cmax [5]: 1050 ng/mL; AUC [6]: 3200 ng·h/mL
